Laboratory results taken from patent US9012166B2, “Method for assaying histone methylation enzyme activity” (Kyushu Institute of Technology, priority 2010, dated 2015).

Molecular target: T1, G9a (GST-mG9a) (Mus musculus, UniProt Q9Z148)
T1 sequence (Q9Z148 1-1263): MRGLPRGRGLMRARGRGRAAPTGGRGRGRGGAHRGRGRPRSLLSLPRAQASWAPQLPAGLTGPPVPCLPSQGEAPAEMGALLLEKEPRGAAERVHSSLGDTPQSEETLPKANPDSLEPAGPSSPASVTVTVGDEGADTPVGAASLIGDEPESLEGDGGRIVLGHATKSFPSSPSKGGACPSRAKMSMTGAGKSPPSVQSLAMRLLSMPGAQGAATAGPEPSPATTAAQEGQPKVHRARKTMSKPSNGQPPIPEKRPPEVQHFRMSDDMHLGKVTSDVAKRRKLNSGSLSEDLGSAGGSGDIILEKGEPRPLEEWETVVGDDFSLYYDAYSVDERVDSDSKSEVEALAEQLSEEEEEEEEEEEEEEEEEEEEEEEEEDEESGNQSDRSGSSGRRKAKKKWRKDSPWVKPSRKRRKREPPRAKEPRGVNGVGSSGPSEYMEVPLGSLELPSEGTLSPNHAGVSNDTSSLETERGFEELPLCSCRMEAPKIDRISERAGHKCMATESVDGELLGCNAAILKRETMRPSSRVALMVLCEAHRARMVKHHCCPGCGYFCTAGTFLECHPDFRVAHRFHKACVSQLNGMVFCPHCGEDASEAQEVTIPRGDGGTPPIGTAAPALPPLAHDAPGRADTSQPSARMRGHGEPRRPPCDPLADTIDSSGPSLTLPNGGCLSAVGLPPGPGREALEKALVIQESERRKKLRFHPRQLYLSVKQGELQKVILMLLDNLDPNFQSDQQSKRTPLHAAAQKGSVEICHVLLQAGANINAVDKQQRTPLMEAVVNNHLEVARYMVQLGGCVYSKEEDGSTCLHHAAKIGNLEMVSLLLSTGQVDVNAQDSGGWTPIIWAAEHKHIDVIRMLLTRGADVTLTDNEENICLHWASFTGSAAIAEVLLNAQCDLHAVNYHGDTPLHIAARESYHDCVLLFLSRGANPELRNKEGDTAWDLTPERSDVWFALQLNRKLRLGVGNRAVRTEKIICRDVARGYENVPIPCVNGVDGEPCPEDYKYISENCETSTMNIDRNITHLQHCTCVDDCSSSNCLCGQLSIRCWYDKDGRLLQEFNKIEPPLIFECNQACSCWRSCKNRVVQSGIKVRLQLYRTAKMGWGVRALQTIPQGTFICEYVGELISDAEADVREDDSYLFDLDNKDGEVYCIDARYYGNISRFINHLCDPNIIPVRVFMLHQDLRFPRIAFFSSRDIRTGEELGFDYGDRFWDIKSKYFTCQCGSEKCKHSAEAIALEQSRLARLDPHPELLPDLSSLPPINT
Experiment: Assay for measuring histone methyltransferase activity using peptidyl MCA, inhibitor evaluation with G9a
Assay type: biochemical
Settings: IC50 for G9a, Ac-histone H3 (1-9)-MCA
Procedure: When G9a was adopted as a histone methyltransferase, the following method was used. 10 μL of 2×HMT buffer (100 mM Tris-HCl (pH 8.5), 20 mM MgCl2, 40 mM KCl, 20 mM 2-mercaptoethanol, 500 mM sucrose), 0.4 μL of a BSA solution (150 μg/mL), 2 μL of GST-mG9a (0, 0.5 μg/μL), 1 μL of gliotoxin (any of various concentrations) and 2.6 μL of distilled water were mixed and then incubated at room temperature for 1 hour. Then, 2 μL of SAM (10 mM) and 2 μL of a peptidyl MCA (Ac-histone H3 (1-9)-MCA) solution (0.6 mM) were added thereto, which was then incubated at 37° C. for 1 hour. Thereafter, 30 μL of a trypsin solution (20 mg/mL) was added thereto, followed by incubation at 37° C. for 15 minutes. Then, the fluorescence intensity of the solution was measured at an excitation wavelength (λex) of 390 nm and a fluorescence wavelength (λem) of 460 nm. The final concentration of GST-mG9a during the measurement of fluorescence intensity was 0.05 μg/μL. The results of the assay for measuring histone methyltransferase activity are shown in the middle panel of FIG. 18.
The rate of the inhibition of methylation by gliotoxin was calculated from the results in the left panel and the middle panel of FIG. 18. Specifically, the value (%) was calculated which was obtained by dividing “a value obtained by subtracting “the fluorescence intensity of AMC when peptidase was added but gliotoxin was not added” from “the fluorescence intensity of AMC when both peptidase and gliotoxin were added”” by “a value obtained by subtracting “the fluorescence intensity of AMC when peptidase was added but gliotoxin was not added” from “the fluorescence intensity of AMC when no peptidase or gliotoxin was added”” and multiplying the resultant value by 100. The rate (%) of the inhibition of methylation by gliotoxin is shown in the right panel of FIG. 18.
Specifically, the assay for measuring histone methyltransferase activity was carried out by the same method as the method using G9a […] in Example 8 except for using S-Adenosyl-L-homocysteine (SAH) in place of gliotoxin. SAH is a by-product of the methylation reaction and is known to inhibit histone methyltransferase in a negative feedback manner. […] The rate (%) of the inhibition of methylation by SAH was calculated from the results in the left panel of FIG. 19. The results are shown in the right panel of FIG. 19.
When G9a was adopted as a histone methyltransferase, the following method was used. […] Then, the fluorescence intensity of the solution was measured at an excitation wavelength (λex) of 330 nm and a fluorescence wavelength (λem) of 380 nm or at an excitation wavelength (λex) of 390 nm and a fluorescence wavelength (λem) of 460 nm. The final concentration of GST-mG9a during the measurement of fluorescence intensity was 0 μg/μL or 0.05 μg/μL.

## CN1C(=O)[C@]23CC4=CC=C[C@H](O)[C@H]4N2C(=O)[C@@]1(CO)SS3 [gliotoxin]
Example 8, AMC fluorescence λex 390 nm/λem 460 nm, FIG. 18
  IC50: 2800 nM
Example 14, AMC fluorescence λex 390 nm/λem 460 nm, left panel of FIG. 27
  IC50: 1800 nM
Example 14, peptidyl MCA fluorescence λex 330 nm/λem 380 nm, right panel of FIG. 27
  IC50: 2800 nM
